Assay results from BindingDB's records for patent US11547697 (Millennium Pharmaceuticals, 2023).

Experiments:
Assay in all cases: Inhibition Assay of PI3K
[1] = molecular target: Phosphatidylinositol 4,5-bisphosphate 3-kinase catalytic subunit alpha isoform (Homo sapiens, UniProt P42336)
[2] = molecular target: Phosphatidylinositol 4,5-bisphosphate 3-kinase catalytic subunit beta isoform (Homo sapiens, UniProt P42338)
[3] = molecular target: T1, Phosphatidylinositol 4,5-bisphosphate 3-kinase catalytic subunit delta isoform (Homo sapiens, UniProt O00329)
T1 sequence (O00329 whole entry): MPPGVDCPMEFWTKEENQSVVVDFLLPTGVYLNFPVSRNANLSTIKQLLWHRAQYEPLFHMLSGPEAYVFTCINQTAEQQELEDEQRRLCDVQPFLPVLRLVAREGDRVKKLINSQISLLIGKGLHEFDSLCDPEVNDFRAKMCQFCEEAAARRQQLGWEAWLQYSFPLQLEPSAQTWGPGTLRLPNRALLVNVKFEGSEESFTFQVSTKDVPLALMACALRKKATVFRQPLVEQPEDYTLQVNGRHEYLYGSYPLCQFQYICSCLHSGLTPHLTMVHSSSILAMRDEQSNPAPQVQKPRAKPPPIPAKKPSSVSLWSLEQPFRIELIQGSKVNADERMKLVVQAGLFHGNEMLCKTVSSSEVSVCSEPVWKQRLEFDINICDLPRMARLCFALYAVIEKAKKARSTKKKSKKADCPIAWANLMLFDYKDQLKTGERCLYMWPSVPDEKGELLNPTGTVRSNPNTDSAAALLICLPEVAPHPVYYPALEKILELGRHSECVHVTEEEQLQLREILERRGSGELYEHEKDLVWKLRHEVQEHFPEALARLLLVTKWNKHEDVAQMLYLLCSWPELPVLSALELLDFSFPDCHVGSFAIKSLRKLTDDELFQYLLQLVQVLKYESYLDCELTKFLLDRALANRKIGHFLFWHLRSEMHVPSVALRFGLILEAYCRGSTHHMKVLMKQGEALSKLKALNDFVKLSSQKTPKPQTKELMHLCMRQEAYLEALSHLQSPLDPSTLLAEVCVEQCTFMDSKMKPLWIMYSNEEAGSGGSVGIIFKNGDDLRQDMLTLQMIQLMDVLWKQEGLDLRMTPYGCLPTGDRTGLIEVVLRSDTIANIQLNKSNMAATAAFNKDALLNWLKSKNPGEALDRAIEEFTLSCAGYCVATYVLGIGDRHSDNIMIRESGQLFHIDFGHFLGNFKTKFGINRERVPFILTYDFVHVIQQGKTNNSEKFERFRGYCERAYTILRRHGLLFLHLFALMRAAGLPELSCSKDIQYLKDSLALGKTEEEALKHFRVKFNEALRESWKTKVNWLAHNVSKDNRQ

[4] = molecular target: Phosphatidylinositol 4,5-bisphosphate 3-kinase catalytic subunit gamma isoform (Homo sapiens, UniProt P48736)
Sequence of Phosphatidylinositol 4,5-bisphosphate 3-kinase catalytic subunit gamma isoform (P48736 whole entry, canonical isoform): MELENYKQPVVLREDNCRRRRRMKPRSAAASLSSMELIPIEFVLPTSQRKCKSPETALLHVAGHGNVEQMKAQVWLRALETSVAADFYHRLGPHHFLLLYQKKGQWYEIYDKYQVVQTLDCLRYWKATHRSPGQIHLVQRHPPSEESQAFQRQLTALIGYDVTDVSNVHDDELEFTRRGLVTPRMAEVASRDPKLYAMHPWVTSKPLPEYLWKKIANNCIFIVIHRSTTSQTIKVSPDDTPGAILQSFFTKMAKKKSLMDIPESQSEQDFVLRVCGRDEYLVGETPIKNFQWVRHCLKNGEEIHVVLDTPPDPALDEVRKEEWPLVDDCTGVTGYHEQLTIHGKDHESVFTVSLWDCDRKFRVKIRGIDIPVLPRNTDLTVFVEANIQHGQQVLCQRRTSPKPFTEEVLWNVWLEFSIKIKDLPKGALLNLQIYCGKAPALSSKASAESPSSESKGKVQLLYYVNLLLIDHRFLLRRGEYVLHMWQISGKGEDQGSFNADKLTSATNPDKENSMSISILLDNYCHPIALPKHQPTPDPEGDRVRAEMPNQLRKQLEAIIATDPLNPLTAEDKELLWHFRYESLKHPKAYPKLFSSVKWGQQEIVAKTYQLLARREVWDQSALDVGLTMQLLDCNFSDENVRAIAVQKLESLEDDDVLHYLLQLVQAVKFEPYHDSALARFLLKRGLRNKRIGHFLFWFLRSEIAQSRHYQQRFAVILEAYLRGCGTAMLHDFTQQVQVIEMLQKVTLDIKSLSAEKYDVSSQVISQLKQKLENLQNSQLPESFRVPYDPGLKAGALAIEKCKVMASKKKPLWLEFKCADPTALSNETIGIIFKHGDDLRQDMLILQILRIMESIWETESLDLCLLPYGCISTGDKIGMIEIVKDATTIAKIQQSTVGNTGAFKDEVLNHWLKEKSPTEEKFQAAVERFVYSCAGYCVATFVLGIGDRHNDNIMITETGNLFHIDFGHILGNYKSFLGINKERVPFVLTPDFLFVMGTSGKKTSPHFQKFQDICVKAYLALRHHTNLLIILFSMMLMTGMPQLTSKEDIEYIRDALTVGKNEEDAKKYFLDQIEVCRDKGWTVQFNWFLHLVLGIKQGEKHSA

Sequence of Phosphatidylinositol 4,5-bisphosphate 3-kinase catalytic subunit beta isoform (P42338 whole entry, canonical isoform): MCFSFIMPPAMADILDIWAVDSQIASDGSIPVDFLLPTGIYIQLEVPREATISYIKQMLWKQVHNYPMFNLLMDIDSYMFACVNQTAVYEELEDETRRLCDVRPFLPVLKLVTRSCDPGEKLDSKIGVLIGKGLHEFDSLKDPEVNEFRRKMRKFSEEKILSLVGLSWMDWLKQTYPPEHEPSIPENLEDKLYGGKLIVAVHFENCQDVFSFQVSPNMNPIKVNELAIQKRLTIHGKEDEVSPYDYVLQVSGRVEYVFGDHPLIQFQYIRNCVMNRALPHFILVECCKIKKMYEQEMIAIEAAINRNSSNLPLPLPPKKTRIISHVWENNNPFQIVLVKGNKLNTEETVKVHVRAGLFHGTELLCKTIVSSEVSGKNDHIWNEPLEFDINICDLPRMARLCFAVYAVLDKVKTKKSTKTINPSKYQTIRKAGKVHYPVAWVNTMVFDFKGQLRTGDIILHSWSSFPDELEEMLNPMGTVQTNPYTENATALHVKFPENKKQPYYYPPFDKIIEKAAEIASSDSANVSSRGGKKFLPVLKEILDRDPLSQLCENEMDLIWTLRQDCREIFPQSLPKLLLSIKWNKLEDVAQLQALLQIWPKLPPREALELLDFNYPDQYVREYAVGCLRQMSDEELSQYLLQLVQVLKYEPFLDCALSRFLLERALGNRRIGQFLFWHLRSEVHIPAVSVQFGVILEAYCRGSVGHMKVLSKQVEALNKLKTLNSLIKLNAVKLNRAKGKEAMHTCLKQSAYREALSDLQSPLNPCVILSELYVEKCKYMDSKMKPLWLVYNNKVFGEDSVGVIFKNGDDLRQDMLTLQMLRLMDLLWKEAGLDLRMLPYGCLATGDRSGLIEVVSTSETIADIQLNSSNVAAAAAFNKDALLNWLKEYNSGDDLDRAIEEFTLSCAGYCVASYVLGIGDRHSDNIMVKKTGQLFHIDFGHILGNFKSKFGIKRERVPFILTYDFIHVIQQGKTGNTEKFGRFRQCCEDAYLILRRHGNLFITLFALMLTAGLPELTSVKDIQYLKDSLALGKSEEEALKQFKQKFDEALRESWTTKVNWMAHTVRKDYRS
Sequence of Phosphatidylinositol 4,5-bisphosphate 3-kinase catalytic subunit alpha isoform (P42336 whole entry, canonical isoform): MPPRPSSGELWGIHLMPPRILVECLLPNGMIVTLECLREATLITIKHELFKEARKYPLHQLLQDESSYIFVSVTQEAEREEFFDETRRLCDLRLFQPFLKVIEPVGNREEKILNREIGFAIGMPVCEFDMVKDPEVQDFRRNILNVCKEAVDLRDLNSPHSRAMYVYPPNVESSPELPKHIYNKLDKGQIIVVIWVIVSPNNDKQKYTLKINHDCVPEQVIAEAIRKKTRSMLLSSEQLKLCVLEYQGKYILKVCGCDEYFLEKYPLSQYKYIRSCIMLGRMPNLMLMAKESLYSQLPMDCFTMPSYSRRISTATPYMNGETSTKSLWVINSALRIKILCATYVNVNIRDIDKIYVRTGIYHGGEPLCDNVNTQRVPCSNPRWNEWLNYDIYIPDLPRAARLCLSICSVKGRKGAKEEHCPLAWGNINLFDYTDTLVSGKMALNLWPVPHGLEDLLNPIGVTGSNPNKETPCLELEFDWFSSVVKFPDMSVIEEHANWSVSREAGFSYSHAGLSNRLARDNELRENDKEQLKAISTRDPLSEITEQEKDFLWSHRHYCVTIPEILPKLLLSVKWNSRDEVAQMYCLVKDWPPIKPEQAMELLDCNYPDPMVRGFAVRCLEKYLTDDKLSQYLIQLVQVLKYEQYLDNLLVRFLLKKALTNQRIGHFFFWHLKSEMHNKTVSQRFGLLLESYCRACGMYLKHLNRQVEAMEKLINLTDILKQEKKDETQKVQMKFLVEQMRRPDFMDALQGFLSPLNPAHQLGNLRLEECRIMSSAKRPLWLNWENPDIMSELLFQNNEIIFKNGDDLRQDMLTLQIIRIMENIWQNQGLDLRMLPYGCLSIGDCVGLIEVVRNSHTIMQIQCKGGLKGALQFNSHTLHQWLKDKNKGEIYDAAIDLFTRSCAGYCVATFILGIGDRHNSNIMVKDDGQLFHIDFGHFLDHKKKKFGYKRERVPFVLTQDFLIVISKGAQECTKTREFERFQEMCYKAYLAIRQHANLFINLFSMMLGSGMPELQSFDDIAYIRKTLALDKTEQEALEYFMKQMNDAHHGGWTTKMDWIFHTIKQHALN

IC50 [1] | IC50 [2] | IC50 [3] | IC50 [4] | Compound
> 10 µM | > 10 µM | > 10 µM | > 10 µM | CC(=O)n1nc(N)c2ccc(-c3ccc4oc(N)nc4c3)cc21 [US11547697, Compound 426]
> 10 µM | > 10 µM | > 10 µM | > 10 µM | C[C@H]1CN(c2cnc3ccc(-c4cccc5nc(N)oc45)cc3n2)CCN1 [US11547697, Compound 310]
> 10 µM | > 10 µM | > 10 µM | > 10 µM | CN1CCC(Nc2nc3cc(-c4ccc5ncc(C(=O)N6CCOCC6)n5c4)ccc3o2)CC1 [US11547697, Compound 408]
> 10 µM | > 10 µM | > 10 µM | > 10 µM | CC(=O)Nc1nc2cc(-c3ccc4oc(N)nc4c3)ccc2o1 [US11547697, Compound 244]
> 10 µM | > 10 µM | > 10 µM | > 10 µM | Nc1noc2cc(-c3ccc4ncc(C(=O)N5CCOCC5)n4c3)ccc12 [US11547697, Compound 488]
> 10 µM | > 10 µM | > 10 µM | > 10 µM | Nc1nc2cc(-c3cnc4ncc(-c5ccncc5)n4c3)ccc2o1 [US11547697, Compound 61]
> 10 µM | > 10 µM | > 10 µM | > 10 µM | Cc1nc2ccc(-c3ccc4oc(N)nc4c3)cn2c1C(=O)N1CCN(C)CC1 [US11547697, Compound 91]
> 10 µM | > 10 µM | > 10 µM | > 10 µM | Nc1nc2cc(-c3ccc4ncn(C(=O)N5CCOCC5)c4c3)ccc2o1 [US11547697, Compound 317]
> 10 µM | > 10 µM | > 10 µM | > 10 µM | Nc1nc2cc(-c3ccc4nc(N)c(N5CC(N6CCOCC6)C5)nc4c3)ccc2o1 [US11547697, Compound 404]
> 10 µM | > 10 µM | > 10 µM | > 10 µM | CC(=O)Nc1n[nH]c2ccc(-c3ccc4oc(N)nc4c3)cc12 [US11547697, Compound 431]
> 10 µM | > 10 µM | > 10 µM | > 10 µM | O=C(c1cnc2ccc(-c3ccc4c(Nc5ccccc5)noc4c3)cn12)N1CCOCC1 [US11547697, Compound 509]
> 10 µM | > 10 µM | > 10 µM | > 10 µM | CC(=O)Nc1cn2cc(-c3ccc4nccc(-c5ccncc5)c4c3)ccc2n1 [US11547697, Compound 19]
> 10 µM |  | > 10 µM |  | Nc1cn2cc(-c3ccc4nc(N)oc4c3)ccc2n1 [US11547697, Compound 247]
> 10 µM | > 10 µM | > 10 µM | > 10 µM | Nc1nsc2ccc(-c3ccc4nccc(-c5ccncc5)c4c3)cc12 [US11547697, Compound 12]
> 10 µM | > 10 µM | > 10 µM | > 10 µM | COc1ccc(CNc2n[nH]c3cc(-c4ccc5oc(N)nc5c4)ccc23)cc1 [US11547697, Compound 429]
> 10 µM |  | > 10 µM | > 10 µM | O=C(c1cnc2ccc(-c3ccc4oc(Nc5ccccc5)nc4c3)cn12)N1CCOCC1 [US11547697, Compound 407]
> 10 µM | > 10 µM | > 10 µM |  | CC(=O)Nc1nc2cc(-c3ccc4oc(N)nc4c3)ccc2s1 [US11547697, Compound 250]
 | > 10 µM | > 10 µM | > 10 µM | Cn1c(N2CCOCC2)nc2cc(-c3ccc4oc(N)nc4c3)ccc2c1=O [US11547697, Compound 80]

IC50 [1] | IC50 [2] | IC50 [3] | IC50 [4] | Compound
 | > 10 µM | > 10 µM | > 10 µM | CN1CCN(c2nc3cc(-c4ccc5oc(N)nc5c4)ccc3c(=O)n2C)CC1 [US11547697, Compound 79]
 | > 10 µM | > 10 µM | > 10 µM | Nc1nsc2cc(-c3ccc4ncc(C(=O)N5CCOCC5)n4c3)ccc12 [US11547697, Compound 489]
 | > 10 µM | > 10 µM | > 10 µM | Nc1nc2cc(-c3ccc4ncc(C(=O)N5CCOCC5)nc4c3)ccc2o1 [US11547697, Compound 158]
 | > 10 µM | > 10 µM | > 10 µM | Nc1ncc(-c2cnc3ccc(-c4ccc5oc(N)nc5c4)cc3n2)cn1 [US11547697, Compound 210]
 | > 10 µM | > 10 µM | > 10 µM | Nc1nc2cc(-c3ccc4ncc(N5CCN(CC6CC6)CC5=O)nc4c3)ccc2o1 [US11547697, Compound 393]
 | > 10 µM | > 10 µM | > 10 µM | Cc1c(-c2ccc3oc(N)nc3c2)ccc2ncc(N3CC(N4CCOCC4)C3)nc12 [US11547697, Compound 383]
 | > 10 µM | > 10 µM | > 10 µM | CS(=O)(=O)Nc1cc(-c2ccc3ncc(C(=O)N4CCOCC4)n3c2)ccc1Cl [US11547697, Compound 460]
 | > 10 µM | > 10 µM | > 10 µM | CN1CCN(C(=O)c2cnc3ccc(-c4ccc5oc(N)nc5c4)cc3n2)CC1 [US11547697, Compound 157]
 | > 10 µM | > 10 µM | > 10 µM | NC(=O)[C@@H]1CCCN1c1cnc2ccc(-c3ccc4oc(N)nc4c3)cc2n1 [US11547697, Compound 257]
> 10 µM |  | > 10 µM | > 10 µM | C[C@H]1CN(c2cnc3cccc(-c4ccc5nc(N)oc5c4)c3n2)CCN1 [US11547697, Compound 343]
 | > 10 µM | > 10 µM | > 10 µM | Nc1nc2ccc(-c3ccc4nnc(C(=O)N5CCCC5)n4c3)cc2o1 [US11547697, Compound 305]
 | > 10 µM | > 10 µM | > 10 µM | Nc1nc2cc(-c3cc(F)c4ncc(C(=O)N5CCOCC5)n4c3)ccc2o1 [US11547697, Compound 438]
 | > 10 µM | > 10 µM | > 10 µM | Nc1ncc(-c2ccc3ncc(C(=O)N4CCOCC4)n3c2)cc1C(F)(F)F [US11547697, Compound 410]
 | > 10 µM | > 10 µM | > 10 µM | Nc1nc2cc(-c3ccc4ncc(C(=O)N5CCOCC5)n4c3)c(Cl)cc2o1 [US11547697, Compound 370]
 | > 10 µM | > 10 µM | > 10 µM | Nc1cc(-c2ccc3ncc(C(=O)N4CCOCC4)n3c2)cnc1Cl [US11547697, Compound 415]
 | > 10 µM | > 10 µM | > 10 µM | Nc1nc2ccc(-c3cc(F)c4ncc(C(=O)N5CCOCC5)n4c3)cc2o1 [US11547697, Compound 439]
 | > 10 µM | > 10 µM | > 10 µM | Nc1nc2cc(-c3ccc4ncn(C5CCC5)c(=O)c4c3)ccc2o1 [US11547697, Compound 205]
 | > 10 µM | > 10 µM | > 10 µM | CCN(CC)CCn1cnc2ccc(-c3ccc4oc(N)nc4c3)cc2c1=O [US11547697, Compound 224]

Compound | IC50 [1] | IC50 [2] | IC50 [3] | IC50 [4]
Nc1ncc(-c2ccc3oc(N)nc3c2)cn1 [US11547697, Compound 233] | > 10 µM | > 10 µM | > 10 µM | 
Nc1nc2cc(-c3cccc4[nH]nc(N)c34)ccc2o1 [US11547697, Compound 236] | > 10 µM | > 10 µM |  | > 10 µM
